Results published in ChEMBL document CHEMBL5038620, “Discovery of a First-in-Class Inhibitor of the Histone Methyltransferase SETD2 Suitable for Preclinical Studies” (ACS Med Chem Lett, 2021).

Columns and labels:
[1] = Clearance in CD-1 mouse at 1 mg/kg, iv by LC-MS/MS analysis; type: ADME, organism-based; details: in vivo
[2] = Volume of distribution in CD-1 mouse at 1 mg/kg, iv by LC-MS/MS analysis; type: ADME, organism-based; details: in vivo
[3] = Terminal half life in CD-1 mouse at 1 mg/kg, iv by LC-MS/MS analysis; type: ADME, organism-based; details: in vivo, read-out: beta t1/2 (converted)
[4] = Stability in mouse hepatocytes assessed as intrinsic clearance measured upto 60 minutes by LC/MS/MS analysis; type: ADME, cell-based, Hepatocyte; details: read-out: CLH
[5] = Stability in human hepatocytes assessed as intrinsic clearance measured upto 120 minutes by LC/MS/MS analysis; type: ADME, cell-based, Hepatocyte; details: time >=60 min, read-out: CLH
[6] = Apparent permeability across apical to basal membrane in human Caco-2 cells measured after 2 hrs by LC-MS/MS analysis; type: ADME, cell-based

Compound	clearance [1]	Vd [2]	half-life [3]	CLint scaled [4]	CLint scaled [5]	Papp A→B at 2 h [6]
CC(=O)N(C)C1CCN(c2cc(F)cc(NC(=O)c3cc4c(F)ccc(C)c4[nH]3)c2)C1 (centres undefined)	24.2 mL/min/kg	1.04 L/kg	42 min	–	–	–
CC.Cc1ccc(F)c2cc(C(=O)N[C@@H]3CCC[C@H](N4CC[C@@H](N(C)S(C)(=O)=O)C4)C3)[nH]c12	–	–	–	235 mL/min/kg	21.1 mL/min/kg	–
Cc1ccc(F)c2cc(C(=O)N[C@@H]3CCC[C@H](N4CC[C@H](N(C)S(C)(=O)=O)C4)C3)[nH]c12	24.2 mL/min/kg	1.04 L/kg	42 min	–	–	3.2 ×10⁻⁶ cm/s
